Assay results published in US9206245B2, “Immunogenic peptides and methods of use for treating and preventing cancer” (The United States of America, as represented by the …, priority 2005, dated 2015).
Where no end group is shown, it is not given here.

Experiments:
HLA-B7 = target: T1, HLA-B7 (Homo sapiens, UniProt P01889); test: T2-B7 binding assay: stabilization of HLA-B7 molecules on the surface of T2-B7 cells, flow cytometry; conditions: for EC50: FIGS. 4 and 6, read-out: concentration required for a 50% increase in HLA-B7 expression; for binding affinity for HLA-B7 compared with natural RS10 peptide: FIGS. 4 and 6
T1 construct: transfected with the HLA-B7 gene; expressed in transfected cells; host or cells: T2 (TAP1/TAP2-deficient hybrid B and T lymphoblastoid cell line) transfected with the HLA-B7 gene (T2.B7, gift of Peter Cresswell)
Experimental: A chromosomal translocation-generated fusion protein breakpoint peptide, RS10 (SPQNSIRHNL), is selected on the basis of predicted potential binding to HLA-B7 (Rammensee et al., Immunogenetics 41: 178-228 (1995)). Peptide binding to HLA-B7 is assessed by using stabilization of HLA-B7 molecules on the surface of T2-B7 cells that lack the TAP transporter and therefore express only short-lived empty HLA-B7 molecules unless a peptide is present that can bind and stabilize them. These assays are described in (Stuber et al., Eur. J. Immunol., 22, 2697-2703 (1992), Nijman et al., Eur. J. Immunol., 23, 1215-1219 (1993), Zeh et al., Hum. Immunol., 39, 79-86 (1994), and Smith et al., Internat. Immunol., 9, 1085-1093 (1997)). Cells of the TAP1/TAP2-deficient T2 cell line (Salter et al., Immunogenetics, 21, 235-246 (1985), and Spies et al., Nature, 351, 323-324 (1991)) transfected with the HLA-B7 gene are suspended in culture medium containing heat inactivated FCS (2.5% v/v) and added to 96-well round-bottomed plates at 2×10^5 cells/well. Human β2-microglobulin (Sigma Chemical Co.) is also added at 20 μg/well. Where appropriate, peptide is added to the desired concentration. The cells are then incubated overnight at 37° C. in 5% CO2, followed by washing with PBS containing NaN3 (0.5% w/v and FCS 2% v/v). Next, cells are incubated on ice for 30 min in the presence of primary anti-HLA-B7 specific antibody (BB7.1 hybridoma culture supernatant; ATCC), followed by washing and incubation for 30 min in goat anti-mouse immunoglobulin FITC (Becton Dickinson). Analysis is performed by flow cytometry.
Conventional mAb staining is conducted in PBS containing 0.01% sodium azide on ice. Cells are labeled with FITC- or PE-conjugated mAbs obtained from BD PharMingen (San Diego, Calif.). For each staining of interest, the appropriate isotype-matched control is included. All reagents are used at optimal concentration as determined experimentally. Flow cytometric analysis is performed with a FACScan (BD Biosciences, Mountain View, Calif.). Data are collected on 5000-10,000 viable cell events and analyzed with CellQuest software.

C1R-B7 target cells = test: 4 h 51Cr release assay, RS10-specific human CTL line against peptide pulsed C1R-B7 target cells; assay type: cell-based; conditions: peptide pulsed at 10 μM, various E:T ratios, versus control peptide
Experimental: In particular, specific cytotoxic activities are determined in a standard 4 h ^51Cr release assay at various effector:target (E:T) ratios. Briefly, graded doses of viable effector cells are plated in triplicate in 96-well U-bottom culture plates (Corning Glass, Corning, N.Y.) and co-cultured for 4 h with sodium chromate-labeled (100 μCi; NEN, Boston, Mass.) peptide pulsed (10 μM) C1R-B7 target cells. In some experiments, the Rh5, RD and CTR tumor cell lines are used as a target. Supernatants are collected, radioactivity measured, and specific lysis is calculated according to the equation: percentage of specific cytotoxicity=(experimental cpm−spontaneous cpm)/(maximum cpm−spontaneous cpm)×100. Maximum ^51Cr release is determined from supernatants of lysed target cells incubated with Triton X-100 (5% v/v). Spontaneous release is determined from target cells incubated without added effector cells.

T1 sequence (P01889 25-362): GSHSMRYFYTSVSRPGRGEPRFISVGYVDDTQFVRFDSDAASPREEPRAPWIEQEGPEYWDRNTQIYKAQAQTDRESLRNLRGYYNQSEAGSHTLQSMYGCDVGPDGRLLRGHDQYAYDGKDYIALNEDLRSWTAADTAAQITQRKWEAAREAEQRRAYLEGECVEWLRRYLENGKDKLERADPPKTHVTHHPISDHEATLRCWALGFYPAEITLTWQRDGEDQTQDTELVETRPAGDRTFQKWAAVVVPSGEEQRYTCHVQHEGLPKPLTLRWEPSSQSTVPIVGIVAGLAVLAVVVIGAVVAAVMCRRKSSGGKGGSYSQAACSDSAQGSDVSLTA
T1 sequence (P61769 21-119 partner): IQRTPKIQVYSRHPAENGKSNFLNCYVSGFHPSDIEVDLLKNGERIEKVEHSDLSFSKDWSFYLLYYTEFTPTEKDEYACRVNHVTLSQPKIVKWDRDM

Row | Sequence | EC50 (HLA-B7) [nM] | binding affinity for HLA-B7 compared with natural RS10 peptide (HLA-B7) | CTL lysis of peptide pulsed C1R-B7 target cells (C1R-B7 target cells)
1 | SPQNSIRHNL [RS10, SPQNSIRHNL] | ~300 | – | –
2 | SPQNSARHNL [RS10-6A] | – | higher binding affinity for HLA-B7 than the natural RS10 peptide | –
3 | SPQNAIRHNL [RS10-5A] | – | higher binding affinity for HLA-B7 than the natural RS10 peptide | –
4 | SPANSIRHNL [RS10-3A, SPANSIRHNL] | ~50 | higher binding affinity for HLA-B7 than the natural RS10 peptide | specific killing observed
